Measured values from patent US5962475A, “Substituted benzo(B)thiophene compounds having activity as selective estrogen receptor modulators” (Eli Lilly and Company, priority 1997, dated 1999).

Columns and labels:
[1] = system: uterine eosinophil peroxidase activity; experiment: Uterine eosinophil peroxidase (EPO) assay in ovariectomized rats, four day dosing; format: in vivo, Sprague Dawley rats; parameters: Uterine EPO (Vmax): unit not given beside the values; details: for Uterine EPO (Vmax): daily for 4 days
Procedure: (§1) In the examples illustrating the methods, a post-menopausal model was used in which effects of different treatments upon various biological parameters were determined, including serum cholesterol concentration, uterine weight, estrogen receptor binding, uterine eosinophil peroxidase activity, MCF-7 cell proliferation, and bone density.
(§2) Seventy-five day old female Sprague Dawley rats (weight range of 200 to 225 g) were obtained from Charles River Laboratories (Portage, Mich.). The animals were either bilaterally ovariectomized (OVX) or exposed to a sham surgical procedure (Intact) at Charles River Laboratories, and then shipped after one week. Upon arrival, they were housed in metal hanging cages in groups of 3 or 4 per cage and had ad libi tum access to food (calcium content approximately 0.5%) and water for one week. Room temperature was maintained at 22.20°±1.70° C. with a minimum relative humidity of 40%. The photoperiod in the room was 12 hours light and 12 hours dark.
(§3) After a one week acclimation period (therefore, two weeks post-OVX), daily dosing with test compound was initiated. 17a-Ethynyl estradiol (EE2) (Sigma Chemical Co., St. Louis, Mo.), an orally available form of estrogen, or the test compound were given orally, unless otherwise stated, as a suspension in 1% carboxymethyl cellulose or dissolved in 20% β-cyclodextrin. Animals were dosed daily for 4 days. Following the dosing regimen, animals were weighed and anesthetized with a ketamine:xylazine (2:1, v:v) mixture. A blood sample was collected by cardiac puncture. The animals were then sacrificed by asphyxiation with CO2, the uterus was removed through a midline incision, and a wet uterine weight was determined.
Uteri were kept at 4° C. until time of enzymatic analysis. The uteri were then homogenized in 50 volumes of 50 mM Tris buffer (pH--8.0) containing 0.005% Triton X-100. Upon addition of 0.01% hydrogen peroxide and 10 mM o-phenylenediamine (final concentrations) in Tris buffer, increase in absorbance was monitored for one minute at 450 nm. The presence of eosinophils in the uterus, as measured by assay of eosinophil peroxidase activity, is an indication of estrogenic activity of a compound. The maximal velocity of a 15 second interval was determined over the initial, linear portion of the reaction curve.
As is expressed in the data below, estrogenicity also was assessed by evaluating the adverse response of eosinophil infiltration into the uterus.
(§4) The data presented in Table 1 reflect the response of 5 or 6 rats per treatment.

[2] = system: ovariectomized (OVX) rats, uterus; experiment: Uterine weight in ovariectomized rats, four day oral dosing; format: in vivo, Sprague Dawley rats; details: for Uterine Weight (% inc. OVX): daily for 4 days, vs OVX control
Procedure: as §1, §2, §3
(§5) Data presented in Table 1 below show comparative results among control ovariectomized rats, rats treated with EE2, and rats treated with certain compounds of the present invention. […] This uterine response to estrogen is well recognized in the art.
as §4

serum cholesterol = experiment: Serum cholesterol in ovariectomized rats, four day oral dosing; format: in vivo, Sprague Dawley rats; details: for Serum Cholesterol (% decrease OVX): daily for 4 days, vs OVX control
Procedure: as §1, §2, §3
Blood samples were allowed to clot at room temperature for 2 hours, and serum was obtained following centrifugation for 10 minutes at 3000 rpm. Serum cholesterol was determined using a Boehringer Mannheim Diagnostics high performance cholesterol assay. Briefly the cholesterol was oxidized to cholest-4-en-3-one and hydrogen peroxide. The hydrogen peroxide was then reacted with phenol and 4-aminophenazone in the presence of peroxidase to produce a p-quinone imine dye, which was read spectrophotemetrically at 500 nm. Cholesterol concentration was then calculated against a standard curve. The entire assay was automated using a Biomek Automated Workstation.
as §5, §4

[3] = system: MCF-7 breast adenocarcinoma cells; experiment: MCF-7 proliferation assay; format: cell-based; details: Homo sapiens, MCF7; MCF-7 cells, tritiated thymidine pulse after 48 hours with compound; read-out: ED50 (the source's name)
Procedure: MCF-7 breast adenocarcinoma cells (ATCC HTB 22) were maintained in MEM (minimal essential medium, phenol red-free, Sigma, St. Louis, Mo.) supplemented with 10% fetal bovine serum (FBS) (V/V), L-glutamine (2 mM), sodium pyruvate (1 mM), HEPES {(N-[2-hydroxyethyl]piperazine-N'-[2-ethanesulfonic acid]10 mM}, non-essential amino acids and bovine insulin (1 μg/ml) (maintenance medium). Ten days prior to assay, MCF-7 cells were switched to maintenance medium supplemented with 10% dextran coated charcoal stripped fetal bovine serum (DCC-FBS) assay medium) in place of 10% FBS to deplete internal stores of steroids. MCF-7 cells were removed from maintenance flasks using cell dissociation medium (Ca++/Mg++ free HBSS (phenol red-free) supplemented with 10 mM HEPES and 2 mM EDTA). Cells were washed twice with assay medium and adjusted to 80,000 cells/ml. […] Serial dilutions of drugs or DMSO as a diluent control were prepared in assay medium and […] to triplicate microcultures followed by […] assay medium for a final volume of […]. After an additional 48 hours at 37° C. in a 5% CO2 humidified incubator, microcultures were pulsed with tritiated thymidine (1 uCi/well) for 4 hours. Cultures were terminated by freezing at -70° C. for 24 hours followed by thawing and harvesting of microcultures. Samples were counted by liquid scintillation.

MCF-7 Estrogen Receptor = biological target: T1, MCF-7 Estrogen Receptor (Homo sapiens, UniProt P03372); experiment: MCF-7 estrogen receptor binding assay, competition with tritiated 17β-estradiol
T1 construct: protein from MCF-7 lysates; endogenous in cells; host or cells: MCF-7 (lysate)
T1 sequence (P03372 1-595): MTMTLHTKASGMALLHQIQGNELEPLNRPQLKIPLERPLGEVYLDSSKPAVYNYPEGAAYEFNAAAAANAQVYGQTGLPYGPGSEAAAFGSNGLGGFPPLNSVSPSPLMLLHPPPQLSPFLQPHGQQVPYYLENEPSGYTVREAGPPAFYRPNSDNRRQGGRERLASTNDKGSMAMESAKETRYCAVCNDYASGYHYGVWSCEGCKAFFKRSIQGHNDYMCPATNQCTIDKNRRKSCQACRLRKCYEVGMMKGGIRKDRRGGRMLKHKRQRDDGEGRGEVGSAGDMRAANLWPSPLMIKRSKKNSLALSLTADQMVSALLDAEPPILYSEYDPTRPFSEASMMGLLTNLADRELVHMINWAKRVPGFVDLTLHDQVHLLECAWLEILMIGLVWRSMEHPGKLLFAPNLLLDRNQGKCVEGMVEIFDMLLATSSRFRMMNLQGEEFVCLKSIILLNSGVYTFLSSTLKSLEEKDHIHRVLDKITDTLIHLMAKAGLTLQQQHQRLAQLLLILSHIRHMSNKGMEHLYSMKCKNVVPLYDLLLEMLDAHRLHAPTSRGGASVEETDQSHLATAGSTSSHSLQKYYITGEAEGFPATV
Procedure: Binding was allowed to take place for 18 hours at 5-- C., followed by the addition of 0.07 mL of dextran/charcoal and centrifugation to remove non-bound radioligand. Aliquots of supernate containing bound radioligand were mixed with scintillant and counted. Relative binding affinity (RBA) was calculated as: [formula]

Relative binding affinity (RBA) (MCF-7 Estrogen Receptor)	Compound	Uterine EPO (Vmax) ([1]; 0.1 mg/kg PO)	eosinophil infiltration into the uterus, in words ([1]; ovariectomized rats, by assay of eosinophil peroxidase activity)	Uterine Weight (% inc. OVX) ([2]; 0.1 mg/kg PO) [%]	action on the uterus / uterine weight, in words ([2]; orally, 0.1 mg/Kg/day)	Serum Cholesterol (% decrease OVX) (serum cholesterol; 0.1 mg/kg PO) [%]	serum cholesterol, in words (serum cholesterol; orally, 0.1 mg/Kg/day)	Uterine EPO (Vmax) ([1]; 1 mg/kg PO)	Uterine EPO (Vmax) ([1]; 10 mg/kg PO)	IC50 [3] [nM]	Uterine Weight (% inc. OVX) ([2]; 1 mg/kg PO) [%]	Uterine Weight (% inc. OVX) ([2]; 10 mg/kg PO) [%]	Serum Cholesterol (% decrease OVX) (serum cholesterol; 1 mg/kg PO) [%]	Serum Cholesterol (% decrease OVX) (serum cholesterol; 10 mg/kg PO) [%]
–	C#C[C@]1(O)CC[C@H]2[C@@H]3CCc4cc(O)ccc4[C@H]3CC[C@@]21C [Ethynyl estradiol, 17a-Ethynyl estradiol, reference compound]	123.9	substantial, expected increase in eosinophil infiltration	144.1	marked stimulatory action on the uterus	80.3	decrease in serum cholesterol	–	–	–	–	–	–	–
–	O=C(c1ccc(NCCN2CCCCC2)cc1)c1c(-c2ccc(O)cc2)sc2cc(O)ccc12 [Example 2]	1.8	–	-5.0	–	-0.5	–	2.4	2.1	2	15.8	35.6	13.6	42.4
–	O=C(c1ccc(SCCN2CCCCC2)cc1)c1c(-c2ccc(O)cc2)sc2cc(O)ccc12 [Example 4, 6-hydroxy-2-(4-hydroxyphenyl)-3-[4-(2-(piperidin-1-yl)ethylthio)benzoyl]-benzo[b]thiophene]	3.3	–	3.5	–	-16.6	–	1.2	1.8	0.9	23.1	16.7	37.5	47.5
0.19	CN(CCN1CCCCC1)c1ccc(C(=O)c2c(-c3ccc(O)cc3)sc3cc(O)ccc23)cc1 [Example 6, 6-hydroxy-2-(4-hydroxyphenyl)-3-[4-(N-methyl-N-2-(piperidin-1-yl)ethylamino)benzoyl]-benzo[b]thiophene]	4.5	–	17.1	–	4.7	–	3.3	6.0	10	45.4	43.0	42.0	65.1
< 0.002	COc1ccc(-c2sc3cc(OC)ccc3c2C(=O)c2ccc(S(=O)(=O)CCN3CCCCC3)cc2)cc1 [Example 7, 6-methoxy-2-(4-methoxyphenyl)-3-[4-(2-(piperidin-1-yl)ethylsulfonyl)benzoyl]benzo[b]thiophene]	7.5	–	26.4	–	-4.4	–	4.8	8.4	1000	18.6	48.4	12.0	28.7
–	O=C(c1ccc(S(=O)(=O)CCN2CCCCC2)cc1)c1c(-c2ccc(O)cc2)sc2cc(O)ccc12 [Example 8, 6-hydroxy-2-(4-hydroxyphenyl)-3-[4-(2-(piperidin-1-yl)ethylsulfonyl)benzoyl]benzo[b]thiophene]	4.8	–	16.2	–	-23.3	–	13.5	23.1	30	66.9	75.0	17.2	62.3
